Experimental data reported in US20260157967A1, “METHOD FOR PREPARING MEDICINES, HAVING REDUCED PRODUCTION TIME AND IMPROVED STABILITY” (DR.INB CO., priority 2021, published 2026).

Tested on: cancer cells (PANC-1)
Assay: CCK8 assay of the efficiency of killing cancer cells, with or without laser irradiation (FIG. 4)
Assay type: cell-based
Conditions: PANC-1, FIG. 4a, docetaxel treatment at various concentrations
Method: 1 g of polyvinylpyrrolidone (PVP, Sigma-Aldrich) was dissolved in 20 g of ultrapure water and stirred in a mixing chamber at 1500 RPM for 30 minutes to obtain an aqueous PVP solution. Subsequently, 131.7 mg of potassium hexacyanoferrate (III) trihydrate (K3Fe(CN)6·3H2O, Sigma-Aldrich) was dissolved in 20 g of ultrapure water and mixed with the aqueous PVP solution. Then, 400 μl of 1 M HCl (Sigma-Aldrich) was added to the mixing chamber and vortexed at 60 J/s. After movement through an injection pipe, the solution thus prepared was subjected to a step of allowing gas to flow at a high speed on the inner boundary of a reaction chamber and in a liquid cutting tube at an applied voltage of 30 kV, a distance of 25 cm between the reaction chamber and the end of the injection pipe, and a temperature of 140° C. As indicated by the green arrows in FIG. 1, the gas is moved toward the upper portion of the reaction chamber through a structure in which the boundary of the reaction chamber and the liquid cutting tube are at 0.29 rad and the gap of the boundary is 900 nm. As the gas passed, the prepared solution was cut into small pieces. The cut liquid received heat in the reaction chamber and the temperature thereof rose quickly compared to bulk liquid having the same total volume (40 ml) due to heat transfer within the liquid (FIG. 3). […]

CC(=O)O[C@@]12CO[C@@H]1C[C@H](O)[C@@]1(C)C(=O)[C@H](O)C3=C(C)[C@@H](OC(=O)[C@H](O)[C@@H](NC(=O)OC(C)(C)C)c4ccccc4)C[C@@](O)([C@@H](OC(=O)c4ccccc4)[C@H]21)C3(C)C [docetaxel]
efficiency of killing cancer cells: increased the efficiency of killing cancer cells with an increase in the treatment concentration
